# Experiments:
# Assay type in all cases: in vivo
# [1] = tested on: Digitaria sanguinalis (DIGSA); assay: Test Example 1 post-emergence herbicidal activity; settings: 360 h, rate 125 g/ha, evaluated 15 days later, read-out: Post-emergence activity DIGSA (100=total damage to plant; 0=no damage to plant)
# Outline: (§1)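 Plants sown in standard soil in pots; sprayed 1 day after sowing (pre-emergence) or after 10 days' glasshouse cultivation (post-emergence) with aqueous spray of compound formulated in acetone plus Emulsogen EL/N-methylpyrrolidone/dipropylene glycol monomethyl ether/X-77 solution. Damage scored 0–100 (100 = total damage) after 20 days (pre) or 15 days (post).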
# [2] = tested on: Echinochloa crus-galli (ECHCG); assay: Test Example 1 post-emergence herbicidal activity; settings: 360 h, rate 125 g/ha, evaluated 15 days later, read-out: Post-emergence activity ECHCG (100=total damage to plant; 0=no damage to plant)
# Outline: as §1
# [3] = tested on: Alopecurus myosuroides (ALOMY); assay: Test Example 1 post-emergence herbicidal activity; settings: 360 h, rate 125 g/ha, evaluated 15 days later, read-out: Post-emergence activity ALOMY (100=total damage to plant; 0=no damage to plant)
# Outline: as §1
# Lolium perenne (LOLPE) [4] = assay: Test Example 1 post-emergence herbicidal activity; settings: 360 h, rate 125 g/ha, evaluated 15 days later, read-out: Post-emergence activity LOLPE (100=total damage to plant; 0=no damage to plant)
# Outline: as §1
# Setaria faberi (SETFA) [5] = assay: Test Example 1 post-emergence herbicidal activity; settings: 360 h, rate 125 g/ha, evaluated 15 days later, read-out: Post-emergence activity SETFA (100=total damage to plant; 0=no damage to plant)
# Outline: as §1
# Avena fatua (AVEFA) [6] = assay: Test Example 1 post-emergence herbicidal activity; settings: 360 h, rate 125 g/ha, evaluated 15 days later, read-out: Post-emergence activity AVEFA (100=total damage to plant; 0=no damage to plant)
# Outline: as §1
# [7] = tested on: Digitaria sanguinalis (DIGSA); assay: Test Example 1 pre-emergence herbicidal activity; settings: Digitaria sanguinalis, 480 h, rate 250 g/ha, evaluated 20 days later, read-out: Pre-emergence activity DIGSA (100=total damage to plant; 0=no damage to plant)
# Outline: as §1
# [8] = tested on: Echinochloa crus-galli (ECHCG); assay: Test Example 1 pre-emergence herbicidal activity; settings: Echinochloa crus-galli, 480 h, rate 250 g/ha, evaluated 20 days later, read-out: Pre-emergence activity ECHCG (100=total damage to plant; 0=no damage to plant)
# Outline: as §1
# [9] = tested on: Alopecurus myosuroides (ALOMY); assay: Test Example 1 pre-emergence herbicidal activity; settings: Alopecurus myosuroides, 480 h, rate 250 g/ha, evaluated 20 days later, read-out: Pre-emergence activity ALOMY (100=total damage to plant; 0=no damage to plant)
# Outline: as §1
# Lolium perenne (LOLPE) [10] = assay: Test Example 1 pre-emergence herbicidal activity; settings: Lolium perenne, 480 h, rate 250 g/ha, evaluated 20 days later, read-out: Pre-emergence activity LOLPE (100=total damage to plant; 0=no damage to plant)
# Outline: as §1
# Setaria faberi (SETFA) [11] = assay: Test Example 1 pre-emergence herbicidal activity; settings: Setaria faberi, 480 h, rate 250 g/ha, evaluated 20 days later, read-out: Pre-emergence activity SETFA (100=total damage to plant; 0=no damage to plant)
# Outline: as §1
# Avena fatua (AVEFA) [12] = assay: Test Example 1 pre-emergence herbicidal activity; settings: Avena fatua, 480 h, rate 250 g/ha, evaluated 20 days later, read-out: Pre-emergence activity AVEFA (100=total damage to plant; 0=no damage to plant)
# Outline: as §1
SMILES,pest or weed control at 125 g/ha [1],pest or weed control at 125 g/ha [2],pest or weed control at 125 g/ha [3],pest or weed control at 125 g/ha (Lolium perenne (LOLPE) [4]),pest or weed control at 125 g/ha (Setaria faberi (SETFA) [5]),pest or weed control at 125 g/ha (Avena fatua (AVEFA) [6]),pest or weed control at 250 g/ha [7],pest or weed control at 250 g/ha [8],pest or weed control at 250 g/ha [9],pest or weed control at 250 g/ha (Lolium perenne (LOLPE) [10]),pest or weed control at 250 g/ha (Setaria faberi (SETFA) [11]),pest or weed control at 250 g/ha (Avena fatua (AVEFA) [12])
Cc1cc(C)c(C2=C(O)[C@@H]3[C@@H]4O[C@@H](C[C@H]4c4ccc(C(F)(F)F)cc4)[C@@H]3C2=O)c(C)c1 [Example T92],100%,100%,100%,50%,100%,100%,70%,90%,20%,30%,70%,60%
Cc1cc(C)c(C2=C(O)[C@@H]3[C@@H]4O[C@@H](C[C@H]4c4ccc(C#N)cc4)[C@@H]3C2=O)c(C)c1 [Example T93],100%,100%,60%,60%,100%,80%,30%,0%,40%,20%,30%,30%
Cc1cc(C)c(C2=C(O)[C@@H]3[C@@H]4O[C@@H](C[C@@H]4C)[C@@H]3C2=O)c(C)c1 [Example T97],100%,100%,90%,80%,100%,90%,100%,100%,100%,100%,90%,90%
Cc1cc(C)c(C2=C(O)[C@@H]3[C@@H]4O[C@@H](C[C@H]4/C=C/c4ccccc4)[C@@H]3C2=O)c(C)c1 [Example T98],60%,80%,70%,40%,70%,20%,0%,30%,30%,20%,70%,20%
CC[C@@H]1C[C@@H]2O[C@H]1[C@H]1C(O)=C(c3c(C)cc(C)cc3C)C(=O)[C@H]12 [Example T106],80%,100%,90%,80%,90%,80%,100%,100%,90%,100%,100%,90%
CC[C@H]1C[C@@H]2O[C@H]1[C@H]1C(O)=C(c3c(C)cc(C)cc3C)C(=O)[C@H]12 [Example T107],100%,100%,100%,90%,100%,90%,100%,100%,90%,100%,100%,90%
Cc1cc(C)c(C2=C(O)[C@H]3[C@@H](C2=O)[C@]2(C)CC(C)[C@@]3(C)O2)c(C)c1 (stereo partly drawn) [Example T125],80%,90%,80%,70%,80%,70%,100%,100%,70%,100%,100%,70%
Cc1cc(C)c(C2=C(O)[C@@H]3[C@@H]4O[C@@H](C[C@H]4c4ccc(F)nc4)[C@@H]3C2=O)c(C)c1 [Example T129],80%,100%,80%,70%,100%,80%,90%,100%,100%,90%,100%,90%
CCc1ccc(Br)cc1C1=C(O)[C@H]2[C@@H](C1=O)[C@@H]1CC[C@H]2O1 [Example T134],20%,70%,20%,20%,50%,20%,50%,20%,60%,70%,0%,20%
CCc1cc(C)cc(CC)c1C1=C(O)[C@@H]2[C@@H]3O[C@@H](C[C@H]3c3ccc(C)cc3Cl)[C@@H]2C1=O [Example T143],60%,70%,40%,30%,40%,60%,80%,10%,50%,70%,70%,20%
CCc1cc(C)cc(CC)c1C1=C(O)[C@@H]2[C@@H]3O[C@@H](C[C@H]3c3ccc(C)c(F)c3)[C@@H]2C1=O [Example T146],70%,100%,80%,90%,70%,80%,80%,80%,70%,90%,80%,60%
CCc1cc(C)cc(CC)c1C1=C(O)[C@@H]2[C@@H]3O[C@@H](C[C@H]3c3cc(F)ccc3C)[C@@H]2C1=O [Example T147],100%,90%,90%,40%,70%,90%,40%,90%,40%,40%,60%,0%
CCc1cc(C)cc(CC)c1C1=C(O)[C@@H]2[C@@H]3O[C@@H](C[C@H]3c3ccc(F)c(Cl)c3)[C@@H]2C1=O [Example T149],80%,100%,80%,70%,70%,90%,70%,90%,90%,80%,80%,60%
